The values that follow come from patent publication US7244850B2, “Benzimidazole derivatives, compositions containing them, preparation thereof and uses thereof” (AstraZeneca AB, priority 2003, dated 2007).

Usually Ki stands for the dissociation constant of the complex between target and ligand, obtained from inhibition or displacement.

The target in one assay is T1, human CB1 receptor (Homo sapiens, UniProt P21554).
T1 construct: purchased Receptor Biology
Put plainly: hCB1 receptor binding (3H-CP55,940 displacement). The following applies: hCB1 membranes, 3H-CP55,940 radioligand; Ki=IC50/(1+[rad]/Kd); read-out: Ki towards human CB1 receptors. How it is done: (§1) Human CB1 receptor from Receptor Biology (hCB1) or human CB2 receptor from BioSignal (hCB2) membranes are thawed at 37° C., passed 3 times through a 25-gauge blunt-end needle, diluted in the cannabinoid binding buffer (50 mM Tris, 2.5 mM EDTA, 5 mM MgCl2, and 0.5 mg/mL BSA fatty acid free, pH 7.4) and aliquots containing the appropriate amount of protein are distributed in 96-well plates. The IC50 of the compounds of the invention at hCB1 and hCB2 are evaluated from 10-point dose-response curves done with ^3H-CP55,940 at 20000 to 25000 dpm per well (0.17-0.21 nM) in a final volume of 300 μl. The total and non-specific binding are determined in the absence and presence of 0.2 μM of HU210 respectively. The plates are vortexed and incubated for 60 minutes at room temperature, filtered through Unifilters GF/B (presoaked in 0.1% polyethyleneimine) with the Tomtec or Packard harvester using 3 mL of wash buffer (50 mM Tris, 5 mM MgCl2, 0.5 mg BSA pH 7.0). The filters are dried for 1 hour at 55° C. The radioactivity (cpm) is counted in a TopCount (Packard) after adding 65 μl/well of MS-20 scintillation liquid.
(§2) Based on the above assays, the dissociation constant (Ki) for a particular compound of the invention towards a particular receptor is determined using the following equation: Ki=IC50/(1+[rad]/Kd), […]

The target of another assay is T2, human CB2 receptor (Homo sapiens, UniProt P34972).
T2 construct: purchased BioSignal
In words: hCB2 receptor binding (3H-CP55,940 displacement). On the procedure: as §1, §2

T1 sequence (P21554 whole entry): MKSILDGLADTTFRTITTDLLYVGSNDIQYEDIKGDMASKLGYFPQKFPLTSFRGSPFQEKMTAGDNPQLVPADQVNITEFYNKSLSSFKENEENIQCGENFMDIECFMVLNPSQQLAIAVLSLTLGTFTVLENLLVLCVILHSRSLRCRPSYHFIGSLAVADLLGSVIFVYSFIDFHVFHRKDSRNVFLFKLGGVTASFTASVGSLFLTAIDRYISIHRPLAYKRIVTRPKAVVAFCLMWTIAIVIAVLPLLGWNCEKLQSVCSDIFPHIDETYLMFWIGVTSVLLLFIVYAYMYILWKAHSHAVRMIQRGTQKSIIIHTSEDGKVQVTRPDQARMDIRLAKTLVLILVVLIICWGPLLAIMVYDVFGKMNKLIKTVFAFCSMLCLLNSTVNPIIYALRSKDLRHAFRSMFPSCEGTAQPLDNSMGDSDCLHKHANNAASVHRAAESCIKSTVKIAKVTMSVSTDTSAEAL
T2 sequence (P34972 whole entry): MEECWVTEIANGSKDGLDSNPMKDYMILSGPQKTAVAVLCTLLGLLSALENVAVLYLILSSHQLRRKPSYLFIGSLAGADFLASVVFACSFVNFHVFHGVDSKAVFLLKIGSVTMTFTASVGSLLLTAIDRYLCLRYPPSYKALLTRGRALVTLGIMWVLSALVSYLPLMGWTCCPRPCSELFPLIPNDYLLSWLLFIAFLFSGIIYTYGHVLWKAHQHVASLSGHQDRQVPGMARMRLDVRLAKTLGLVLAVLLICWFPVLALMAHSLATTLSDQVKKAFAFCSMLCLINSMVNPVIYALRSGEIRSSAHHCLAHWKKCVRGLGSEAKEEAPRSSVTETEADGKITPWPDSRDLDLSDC

With `CC(C)(C)c1nc2cc(C(=O)N(CC(F)(F)F)CC(F)(F)F)ccc2n1CC1CCCCC1` [compound 1, 2-tert-Butyl-1-(cyclohexylmethyl)-N,N-bis(2,2,2-trifluoroethyl)1H-benzimidazole-5-carboxamide], the Ki at human CB1 receptor was roughly 34 nM; at human CB2 receptor, roughly 33 nM.
